Reference: EP1198478B1, “SOMATOSTATIN ANALOGS AND THEIR USE FOR THE TREATMENT OF CANCER” (Dabur Research Foundation, priority 2000, dated 2002)
“And” between values parts separate entries of the source, which are not always exact repeats. Equal entries are not always repeated.

Experiments:
[1] = test system: human colon adenocarcinoma (PTC) xenografts; assay: In vivo antitumor activity on primary tumor (colon) xenografted mice; parameters: species or system Balb/c athymic mice; conditions: for tumor volumes, Avg: average of three animals; for tumor volumes of individual tumor bearing animals: individual animals (IV, V, VI for SEQ ID NO: 2; I, II, III for SEQ ID NO: 3); for percentage inhibition of tumor growth: as compared to controls, (1-tumor volume-treated/tumor volume control)* 100
Protocol: The antitumor activity of SEQ ID NO:2 and SEQ ID NO:3 was studied in human colon adenocarcinoma (PTC) xenografts in nude mice. PTC tumor xenografts were grown in Balb/c athymic mice by subcutaneous inoculation of a single cell suspension of PTC cells (15 X10^6 cells/ 100µl). The tumor bearing animals were divided into 3 groups of three animals each including one group comprising untreated control animals. Treatment with novel somatostatin analogs was initiated when the average tumor volumes, as measured using a vernier caliper, were between 400-800 mm^3. Solutions of SEQ ID NO:2 and SEQ ID NO:3 were prepared at a concentration of 85 µg/ml and intravenously administered to the assigned group of tumor bearing animals at a dose of 8.5 µg/100 µl twice a day so that the total dose of […] was administered to each animal. The treatment was continued for a period of 10 days.
The antitumor activity of the compounds was monitored by measuring tumor volumes every fourth day using the formula W*W*L*.04 (W = smaller diameter, L = larger diameter). The percentage inhibition of tumor growth was calculated using the formula (1-tumor volume-treated/tumor volume control)* 100.

PA-1 (Ovary) = assay: MTT cytotoxicity assay, PA-1 cells; format: cell-based; conditions: 48 hours
Excerpt: (§1) The cytotoxic effect of peptides SEQ ID NO: 2, SEQ ID NO: 3, SEQ ID NO: 6, and SEQ ID NO: 9, was studied by MTT assay which is based on the principle of uptake of MTT [3-[4,5-dimethylthiazol-2-yl]-2,5-diphenyl tetrazolium bromide], a tetrazolium salt by the metabolically active cells where it is metabolized by active mitochondria into a blue colored formazan product which can be read spectrophotometrically. Briefly, tumor cells PTC (primary human colon cancer cell line), KB (Oral squamous), U87MG (Glioblastoma), HBL100 (Breast), HeP2 (Laryngeal), ECV304 (Endothelial), PA-1 (Ovary) and L132 (Lung) were incubated with the peptide analogs for 48 hours at 37°C in a 96-well culture plate, followed by the addition of 100 µg MTT and further incubation of 1 hour. The formazan crystals formed inside the cells were dissolved with a detergent comprising 10% Sodium dodecyl sulfate and 0.01 N HCl and optical density read on a multiscan ELISA reader. The optical density was directly proportional to the number of proliferating and metabolically active cells.

KB (Oral squamous) = assay: MTT cytotoxicity assay, KB cells; format: cell-based; conditions: 48 hours
Excerpt: as §1

U87MG (Glioblastoma) = assay: MTT cytotoxicity assay, U87MG cells; format: cell-based; conditions: 48 hours
Excerpt: as §1

ECV304 (Endothelial) = assay: MTT cytotoxicity assay, ECV304 cells; format: cell-based; conditions: 48 hours
Excerpt: as §1

[2] = test system: PTC (primary human colon cancer cell line); assay: MTT cytotoxicity assay, PTC cells; format: cell-based; conditions: 48 hours
Excerpt: as §1

HeP2 (Laryngeal) = assay: MTT cytotoxicity assay, HeP2 cells; format: cell-based; conditions: 48 hours
Excerpt: as §1

HBL100 (Breast) = assay: MTT cytotoxicity assay, HBL100 cells; format: cell-based; conditions: 48 hours
Excerpt: as §1

L132 (Lung) = assay: MTT cytotoxicity assay, L132 cells; format: cell-based; conditions: 48 hours
Excerpt: as §1

[3] = day 9, intravenously 8.5 µg/100 µl twice a day, 10 days
[4] = day 13, intravenously 8.5 µg/100 µl twice a day, 10 days
[5] = day 18, intravenously 8.5 µg/100 µl twice a day, 10 days
[6] = day 21, intravenously 8.5 µg/100 µl twice a day, 10 days

D-Phe-Cys-Tyr-D-Trp-Orn-Ac5c-Pen-Thr-NH2 [SEQ ID NO: 3]
tumor volumes, Avg ([1]; day 0, before treatment): 0 mm^3
tumor volumes of individual tumor bearing animals ([1]; day 0, before treatment): 0 mm^3
tumor volumes, Avg [1, 3]: 552 mm^3
tumor volumes of individual tumor bearing animals [1, 3]: 560 mm^3 and 774 mm^3 and 324 mm^3
tumor volumes, Avg [1, 4]: 1758 mm^3
tumor volumes of individual tumor bearing animals [1, 4]: 1946 mm^3 and 1800 mm^3 and 1530 mm^3
tumor volumes, Avg [1, 5]: 3674 mm^3
tumor volumes of individual tumor bearing animals [1, 5]: 3177 mm^3 and 3610 mm^3 and 4234 mm^3
percentage inhibition of tumor growth [1, 6]: 54.7%
tumor volumes, Avg [1, 6]: 4080 mm^3
tumor volumes of individual tumor bearing animals [1, 6]: 0 mm^3 and 4939 mm^3 and 7301 mm^3
Percentage cytotoxicity (PA-1 (Ovary); 1nM): 29.5 ± 1.0%
Percentage cytotoxicity (PA-1 (Ovary); 10 nM): 39.5 ± 3.4%
Percentage cytotoxicity (PA-1 (Ovary); 1µM): 19.5 ± 3.3%
Percentage cytotoxicity (PA-1 (Ovary); 100n M): 38.5 ± 2.2%
Percentage cytotoxicity (KB (Oral squamous); 1nM): 29.8 ± 1.2%
Percentage cytotoxicity (KB (Oral squamous); 10 nM): 25.0 ± 4.6%
Percentage cytotoxicity (KB (Oral squamous); 1µM): 17.9 ± 1.3%
Percentage cytotoxicity (KB (Oral squamous); 100n M): 19.4 ± 5.2%
Percentage cytotoxicity (U87MG (Glioblastoma); 1nM): 44.2 ± 3.5%
Percentage cytotoxicity (U87MG (Glioblastoma); 10 nM): 45.0 ± 2.4%
Percentage cytotoxicity (U87MG (Glioblastoma); 1µM): 28.9 ± 1.2%
Percentage cytotoxicity (U87MG (Glioblastoma); 100n M): 42.4 ± 1.4%
Percentage cytotoxicity (ECV304 (Endothelial); 1nM): 13.9 ± 3.9%
Percentage cytotoxicity (ECV304 (Endothelial); 10 nM): 23.9 ± 1.3%
Percentage cytotoxicity (ECV304 (Endothelial); 1µM): 14.9 ± 1.6%
Percentage cytotoxicity (ECV304 (Endothelial); 100n M): 15.9 ± 2.9%
Percentage cytotoxicity ([2]; 1nM): 15 ± 1.5%
Percentage cytotoxicity ([2]; 10 nM): 11 ± 0.8%
Percentage cytotoxicity ([2]; 1µM): 13 ± 2.3%
Percentage cytotoxicity ([2]; 100n M): 13 ± 1.3%
Percentage cytotoxicity (HeP2 (Laryngeal); 1nM): 13.9 ± 3.6%
Percentage cytotoxicity (HeP2 (Laryngeal); 10 nM): 26.8 ± 4.4%
Percentage cytotoxicity (HeP2 (Laryngeal); 1µM): 10.0 ± 2.4%
Percentage cytotoxicity (HeP2 (Laryngeal); 100n M): 25.8 ± 2.5%
Percentage cytotoxicity (HBL100 (Breast); 1nM): 14.6 ± 4.5%
Percentage cytotoxicity (HBL100 (Breast); 10 nM): 17.5 ± 2.8%
Percentage cytotoxicity (HBL100 (Breast); 1µM): 10.6 ± 1.4%
Percentage cytotoxicity (HBL100 (Breast); 100n M): 11.8±3.2%
Percentage cytotoxicity (L132 (Lung); 1nM): 19.0 ± 2.2%
Percentage cytotoxicity (L132 (Lung); 10 nM): 28.6 ± 4.2%
Percentage cytotoxicity (L132 (Lung); 1µM): 19.8 ± 5.5%
Percentage cytotoxicity (L132 (Lung); 100n M): 25.9 ± 2.6%

D-Phe-Cys-Tyr-D-Trp-Orn-Deg-Pen-Thr-NH2 [SEQ ID NO: 2]
tumor volumes, Avg ([1]; day 0, before treatment): 0 mm^3
tumor volumes of individual tumor bearing animals ([1]; day 0, before treatment): 0 mm^3
tumor volumes, Avg [1, 3]: 654 mm^3
tumor volumes of individual tumor bearing animals [1, 3]: 480 mm^3 and 678 mm^3 and 806 mm^3
tumor volumes, Avg [1, 4]: 1927 mm^3
tumor volumes of individual tumor bearing animals [1, 4]: 1254 mm^3 and 2196 mm^3 and 2333 mm^3
tumor volumes, Avg [1, 5]: 3886 mm^3
tumor volumes of individual tumor bearing animals [1, 5]: 1965 mm^3 and 5240 mm^3 and 4453 mm^3
percentage inhibition of tumor growth [1, 6]: 57.1%
tumor volumes, Avg [1, 6]: 3860 mm^3
tumor volumes of individual tumor bearing animals [1, 6]: 491 mm^3 and 4839 mm^3 and 6250 mm^3
Percentage cytotoxicity (PA-1 (Ovary); 1nM): 29.5 ± 24%
Percentage cytotoxicity (PA-1 (Ovary); 10 nM): 27.9 ± 3.4%
Percentage cytotoxicity (PA-1 (Ovary); 1µM): 12.8 ± 3.3%
Percentage cytotoxicity (PA-1 (Ovary); 100n M): 22.9 ± 2.3%
Percentage cytotoxicity (KB (Oral squamous); 1nM): 28.0 ± 3.2%
Percentage cytotoxicity (KB (Oral squamous); 10 nM): 34.9 ± 4.6%
Percentage cytotoxicity (KB (Oral squamous); 1µM): 12.0 ± 4.3%
Percentage cytotoxicity (KB (Oral squamous); 100n M): 19.0 ± 5.2%
Percentage cytotoxicity (U87MG (Glioblastoma); 1nM): 22.8 ± 3.5%
Percentage cytotoxicity (U87MG (Glioblastoma); 10 nM): 41.9 ± 2.4%
Percentage cytotoxicity (U87MG (Glioblastoma); 1µM): 33.9 ± 1.2%
Percentage cytotoxicity (U87MG (Glioblastoma); 100n M): 39.5 ± 1.4%
Percentage cytotoxicity (ECV304 (Endothelial); 1nM): 22.8 ± 3.9%
Percentage cytotoxicity (ECV304 (Endothelial); 10 nM): 19.8 ± 3.3%
Percentage cytotoxicity (ECV304 (Endothelial); 1µM): 6.0 ± 2.9%
Percentage cytotoxicity (ECV304 (Endothelial); 100n M): 14.9 ± 2.9%
Percentage cytotoxicity ([2]; 1nM): 40 ± 0.5%
Percentage cytotoxicity ([2]; 10 nM): 14 ± 2.9%
Percentage cytotoxicity ([2]; 1µM): 9.0 ± 3.2%
Percentage cytotoxicity ([2]; 100n M): 20 ± 1.5%
Percentage cytotoxicity (HeP2 (Laryngeal); 1nM): 14.9 ± 3.2%
Percentage cytotoxicity (HeP2 (Laryngeal); 10 nM): 29.7 ± 4.4%
Percentage cytotoxicity (HeP2 (Laryngeal); 1µM): 10.0 ± 2.4%
Percentage cytotoxicity (HeP2 (Laryngeal); 100n M): 13.0 ± 3.5%
Percentage cytotoxicity (HBL100 (Breast); 1nM): 19.4 ± 4.5%
Percentage cytotoxicity (HBL100 (Breast); 10 nM): 22.8 ± 1.8%
Percentage cytotoxicity (HBL100 (Breast); 1µM): 10.6 ± 1.4%
Percentage cytotoxicity (HBL100 (Breast); 100n M): 15.7 ± 3.5%
Percentage cytotoxicity (L132 (Lung); 1nM): 12.7 ± 2.9%
Percentage cytotoxicity (L132 (Lung); 10 nM): 23.4 ± 4.2%
Percentage cytotoxicity (L132 (Lung); 1µM): 17.7 ± 5.5%
Percentage cytotoxicity (L132 (Lung); 100n M): 22.8 ± 4.6%
